From article PMC5142287, “Weight control interventions improve therapeutic efficacy of dacarbazine in melanoma by reversing obesity-induced drug resistance” (Cancer & Metabolism, 2016)
“Also recorded” adds a separate entry of the source.

Experiments:
[1] = LC-MS/MS quantitation of DTIC in tumor, plasma, liver and adipose tissue
Procedure: The samples were introduced to the mass spectrometer through a reversed-phase column (Agilent ZORBAX SB-C18, 2.1 × 30 mm, 3.5 μm). The mobile phase containing water and acetonitrile with 0.1% formic acid was infused at a flow rate of 0.4 ml min^−1. The MS scan range was set between 100 and 1000 m/z, with the dry gas flow and dry gas temperature maintained at 6 L min^−1 and 320 °C, respectively. […] All the mass spectrometric data were acquired in positive ionization mode using Agilent MassHunter data acquisition software, version B.05.01. MassHunter Quantitative analysis software, version B.07.00 was used for the generation of calibration curves and subsequent quantitation of DTIC in the samples. Calibration curves were created using linear fitting, 1/x weighting and including the origin. Calibration standards (0.5–800 ng) were prepared using standard DTIC. All the samples including the standard DTIC preparations were spiked with leucine enkephalin (10 ng) as internal standard. […] The quantitation capability of this method is evaluated by using samples with known concentrations.

[2] = test system: B16F10 melanoma; assay: B16F10 melanoma isograft in ND C57BL/6J mice: tumor growth and survival
Procedure: Melanoma cells were injected and orlistat treatment was continued. Following tumor formation, all groups of mice were treated with vehicle (acidified water) or DTIC, and tumor volume was followed up in these mice throughout the study as mentioned above. […] At the end of the experiment, mice were sacrificed, tumors were excised, and the samples were immediately preserved at −80 °C until further use. Five mice from each group were followed up for survival studies as mentioned above.

[3] = test system: B16F10 cells; assay: Long-term survival assay, B16F10 cells in CM from 3T3-L1 cells; assay type: cell-based, Murine
Procedure: 3T3-L1 cells were plated in 35-mm dishes and differentiated as described, along with vehicle or orlistat treatment (50 μM).

[4] = test system: B16F1 cells; assay: Long-term survival assay, B16F1 cells in CM from 3T3-L1 cells; assay type: cell-based, Murine
Description: Additional file 1: Table S1. Composition of diets used in the study. Normal diet (ND) was procured from Amrut Laboratory Animal Feed, Pune, India, and high fat diet (HFD) was purchased from Provimi Animal Nutrition Pvt. Ltd., Bangalore, India. *, HFD was also supplemented with 400 g groundnut and 200 g dried coconut per kg body weight of mice. […] Obesity-associated parameters in the experimental ND mice recorded at the end of the experiment. ND male C57BL/6J mice were divided into two major groups. One group was orally treated with orlistat every alternate day before inoculating with B16F10 cells. The second group was orally given vehicle control on every alternate day for 8 weeks. Mice from both the groups (N = 11 per each group) were injected (s.c.) with B16F10 cells (2 × 10^5 cells/mouse in 100 μl PBS). Their body weight was monitored weekly throughout the study, and serum was collected at the end of the experiment. Blood glucose, serum TG, serum cholesterol, serum-free fatty acids, and serum LDLc were measured. Serum factors including leptin, adiponectin, insulin, resistin, IL-6, and TNF-α were estimated by ELISA. […] Effect of obesity-associated serum factors on the protein level of P-gp, Cav-1, and FASN in B16F1 cells. […] Thereafter, these cells were subjected to immunofluorescence confocal staining of the indicated molecules. The data were recorded using Zeiss LSM510 META Confocal Microscope. (Scale bar = 20 μm). […] Data were acquired on FACS Calibur and analyzed using BD CellQuest Pro software. The data are representative of experiments performed three times. (PDF 120 kb) Additional file 5: Figure S3. Effect of inhibition of FASN, Cav-1, and P-gp on response of B16F1 cells to DTIC. […] Thereafter, these cells were subjected to long-term survival assay. […] The medium was changed every 2–3 days.

[5] = Obesity-associated factors in B16F10-isografted HFD C57BL/6J mice (body weight, blood glucose, serum lipids, ELISA); assay type: in vivo; details: end of experiment, mean ± SD
Description: C57BL/6J mice were procured from Experimental Animal Facility (EAF) at National Centre for Cell Science (NCCS), Pune, India. High fat diet (24% fat) was purchased from Provimi Animal Nutrition Pvt. Ltd., Bangalore, India, and normal diet (5% fat) was obtained from Amrut Laboratory, Pune, India. The compositions of diets are provided in supplementary data (Additional file 1: Table S1). Diet-induced obesity was developed in the mice by feeding them with high fat diet as described previously. Male C57BL/6J mice (6–8 weeks old) were divided into normal diet (ND) and high fat diet (HFD) group. ND group was fed with normal diet while HFD group was fed with high fat diet supplemented with ground nut and dried coconut for 6 months. Body weight and serum chemistry profile were measured monthly to verify obesity-associated changes. Water and food were provided ad libitum to all the mice. All animal experiments were carried out as per the requirement and guidelines of the Committee for the Purpose of Control and Supervision of Experiments on Animals (CPCSEA), Government of India, and after obtaining permission of the Institutional Animal Ethics Committee (IAEC).
(§1) Blood glucose levels and serum lipids were estimated as described previously. Insulin, leptin, and adiponectin levels in the serum were estimated by mouse-specific respective ELISA kits as described. Resistin, IL-6, and TNF-α levels in the serum were detected by indirect ELISA as described previously.
To study the impact of diet-induced obesity on the outcome of DTIC therapy in melanoma, we treated B16F10 melanoma isografted obese mice with DTIC purchased from Sigma, USA (80 mg/kg intraperitoneally for five consecutive days as described previously). In addition, to look into the impact of weight loss interventions on the outcome of DTIC therapy in obese mice, mice were administered with orlistat (an antiobesity drug known to inhibit gastrointestinal lipases) and/or shifted from high fat to normal diet followed by DTIC treatment. The detailed experimental plan is illustrated in Fig. 1a. Briefly, obese mice were administered orally with orlistat (10 mg/kg on every alternate day) purchased from Enzo Life Sciences, NY, USA, and/or shifted from high fat diet to normal diet. HFD C57BL/6J mice treated with vehicle or orlistat were termed as HFD-HFD Ctrl and HFD-HFD Orli (N = 11 per each group), respectively, whereas HFD C57BL/6J mice shifted to normal diet and treated with vehicle or orlistat were grouped as HFD-ND Ctrl and HFD-ND Orli (N = 11 per each group), respectively. After 15 days, these mice were injected subcutaneously (s.c.) with B16F10 cells (2 × 10^5) in 100 μl of PBS and monitored daily for the presence of palpable tumors and dimensions were recorded on alternate days. […] Tumor volume was calculated using the formula 0.52 × length × width^2 and was followed up throughout the study.

[6] = Obesity-associated factors in B16F10-isografted ND C57BL/6J mice; assay type: in vivo; details: end of experiment
Description: as §1

[7] = CM from differentiated ID adipocytes
[8] = CM from orlistat-treated differentiating adipocytes, DTIC at 649 μM

With CN(C)/N=N/c1[nH]cnc1C(N)=O [DTIC, Dacarbazine] as the compound, how does the “DTIC level in the plasma, liver, and adipose tissue” value ([1]; HFD mice compared to ND mice) read?
The value was “higher”.

What about the “Level of DTIC in tumors from HFD mice, fold less than in ND counterparts” value ([1]; tumor, mass spectrometry) of the same compound?
The value was ~ 6 fold.

And the “Survival of tumor-bearing mice” value [2]?
The value was “prolonged”.

What about the “Tumor progression (tumor volume and weight)” value ([2]; DTIC 80 mg/kg i.p. 5 days, orlistat 10 mg/kg oral alternate days) of the same compound?
Its value is “significantly reduced; also recorded: significantly decreased”.

What about the Effect on survival [3, 7] of the same compound?
Its Effect on survival is “did not remarkably affect”.

What about the “Improvement of sensitivity to DTIC” value ([3]; CM from differentiated adipocytes, simultaneous treatment with all three inhibitors (FASN, Cav-1, P-gp)) of the same compound?
Its value is “approximately 80%”.

And the Survival remaining [3, 8]?
The Survival remaining was “approximately 30%”.

And the Effect on survival [4, 7]?
The Effect on survival was “did not remarkably affect”.

What about the “Improvement of sensitivity to DTIC” value ([4]; CM from differentiated adipocytes, simultaneous treatment with all three inhibitors) of the same compound?
The value was “approximately 80%”.

What about the Survival remaining [4, 8] of the same compound?
Its Survival remaining is “approximately 30%”.

And the Body weight ([5]; HFD-HFD (continued on HFD), orlistat 10 mg/kg oral alternate days, DTIC 80 mg/kg i.p. 5 days)?
Its Body weight is 32.28 ± 1.70 (p = 0.999) g.

What about the Blood glucose ([5]; HFD-HFD) of the same compound?
Its Blood glucose is 194.50 ± 6.98 (p = 0.9997) mg/dl.

What about the “Serum IL-6” value ([5]; HFD-HFD) of the same compound?
The value was 44.99 ± 1.58 (p = 0.9999) pg/ml.

And the “Serum LDLc” value ([5]; HFD-HFD)?
Its value is 85.01 ± 1.17 (p = 0.9999) mg/dl.

What about the “Serum TG” value ([5]; HFD-HFD) of the same compound?
Its value is 84.17 ± 1.15 (p = 0.9999) mg/dl.

What about the “Serum TNF-α” value ([5]; HFD-HFD) of the same compound?
Its value is 28.67 ± 0.99 (p = 0.9708) pg/ml.

And the Serum adiponectin ([5]; HFD-HFD)?
Its Serum adiponectin is 3421 ± 198 (p = 0.9999) ng/ml.

What about the Serum cholesterol ([5]; HFD-HFD) of the same compound?
Its Serum cholesterol is 120.54 ± 4.49 (p = 0.9995) mg/dl.

And the “Serum free fatty acids” value ([5]; HFD-HFD)?
Its value is 2.20 ± 0.04 (p = 0.9993) mM/l.

What about the Serum insulin ([5]; HFD-HFD) of the same compound?
The Serum insulin was 0.385 ± 0.016 (p = 0.8701) μg/l.

And the Serum leptin ([5]; HFD-HFD)?
Its Serum leptin is 43.11 ± 1.65 (p = 0.9999) ng/ml.

What about the Serum resistin ([5]; HFD-HFD) of the same compound?
Its Serum resistin is 2.23 ± 0.11 (p = 0.9999) ng/ml.

What about the Blood glucose ([5]; HFD-ND) of the same compound?
The Blood glucose was 177.5 ± 5.05 (p = 0.0001) mg/dl.

What about the “Serum IL-6” value ([5]; HFD-ND) of the same compound?
The value was 35.59 ± 2.38 (p < 0.0001) pg/ml.

And the “Serum TG” value ([5]; HFD-ND)?
Its value is 69.15 ± 2.41 (p < 0.0001) mg/dl.

What about the “Serum TNF-α” value ([5]; HFD-ND) of the same compound?
The value was 16.17 ± 1.91 (p < 0.0001) pg/ml.

And the Serum adiponectin ([5]; HFD-ND)?
The Serum adiponectin was 5133 ± 228 (p < 0.0001) ng/ml.

What about the “Serum free fatty acids” value ([5]; HFD-ND) of the same compound?
The value was 1.81 ± 0.05 (p < 0.0001) mM/l.

What about the Serum insulin ([5]; HFD-ND) of the same compound?
Its Serum insulin is 0.301 ± 0.02 (p < 0.0001) μg/l.

What about the Serum leptin ([5]; HFD-ND) of the same compound?
Its Serum leptin is 34.54 ± 2.3 (p < 0.0001) ng/ml.

What about the Serum resistin ([5]; HFD-ND) of the same compound?
Its Serum resistin is 1.82 ± 0.10 (p < 0.0001) ng/ml.

And the Blood glucose ([6]; mean)?
The Blood glucose was 161.17 mg/dL.

And the “Serum IL-6” value ([6]; mean)?
The value was 20.19 pg/mL.

And the “Serum LDLc” value ([6]; mean)?
Its value is 53.12 mg/dL.

And the “Serum TG” value ([6]; mean)?
The value was 55.40 mg/dL.

What about the “Serum TNF-D” value ([6]; mean) of the same compound?
The value was 12.35 pg/mL.

And the Serum adiponectin ([6]; mean)?
The Serum adiponectin was 13873 ng/mL.

What about the Serum cholesterol ([6]; mean) of the same compound?
Its Serum cholesterol is 82.82 mg/dL.

What about the “Serum free fatty acids” value ([6]; mean) of the same compound?
The value was 0.90 mM/L.

And the Serum insulin ([6]; mean)?
The Serum insulin was 0.114 µg/L.

What about the Serum leptin ([6]; mean) of the same compound?
Its Serum leptin is 15.74 ng/mL.

And the Serum resistin ([6]; mean)?
Its Serum resistin is 0.99 ng/mL.

What about the Body weight ([6]; mean (SD on next line)) of the same compound?
The Body weight was 21.1 g.
